For data set [1], the target named is T1, Vascular endothelial growth factor receptor 2 (Homo sapiens, UniProt P35968). As to the kind of experiment: Inhibition of VEGFR2 (unknown origin).
The target of the next data set is Histone deacetylase 1 (Homo sapiens, UniProt Q13547). As to the kind of experiment: Inhibition of HDAC1 (unknown origin).
The target in a further data set is Histone deacetylase 4 (Homo sapiens, UniProt P56524). As to the kind of experiment: Inhibition of HDAC4 (unknown origin).
Data set [2] has as its target T2, Protein deacetylase HDAC6 (Homo sapiens, UniProt Q9UBN7).
T2 sequence (Q9UBN7 whole entry): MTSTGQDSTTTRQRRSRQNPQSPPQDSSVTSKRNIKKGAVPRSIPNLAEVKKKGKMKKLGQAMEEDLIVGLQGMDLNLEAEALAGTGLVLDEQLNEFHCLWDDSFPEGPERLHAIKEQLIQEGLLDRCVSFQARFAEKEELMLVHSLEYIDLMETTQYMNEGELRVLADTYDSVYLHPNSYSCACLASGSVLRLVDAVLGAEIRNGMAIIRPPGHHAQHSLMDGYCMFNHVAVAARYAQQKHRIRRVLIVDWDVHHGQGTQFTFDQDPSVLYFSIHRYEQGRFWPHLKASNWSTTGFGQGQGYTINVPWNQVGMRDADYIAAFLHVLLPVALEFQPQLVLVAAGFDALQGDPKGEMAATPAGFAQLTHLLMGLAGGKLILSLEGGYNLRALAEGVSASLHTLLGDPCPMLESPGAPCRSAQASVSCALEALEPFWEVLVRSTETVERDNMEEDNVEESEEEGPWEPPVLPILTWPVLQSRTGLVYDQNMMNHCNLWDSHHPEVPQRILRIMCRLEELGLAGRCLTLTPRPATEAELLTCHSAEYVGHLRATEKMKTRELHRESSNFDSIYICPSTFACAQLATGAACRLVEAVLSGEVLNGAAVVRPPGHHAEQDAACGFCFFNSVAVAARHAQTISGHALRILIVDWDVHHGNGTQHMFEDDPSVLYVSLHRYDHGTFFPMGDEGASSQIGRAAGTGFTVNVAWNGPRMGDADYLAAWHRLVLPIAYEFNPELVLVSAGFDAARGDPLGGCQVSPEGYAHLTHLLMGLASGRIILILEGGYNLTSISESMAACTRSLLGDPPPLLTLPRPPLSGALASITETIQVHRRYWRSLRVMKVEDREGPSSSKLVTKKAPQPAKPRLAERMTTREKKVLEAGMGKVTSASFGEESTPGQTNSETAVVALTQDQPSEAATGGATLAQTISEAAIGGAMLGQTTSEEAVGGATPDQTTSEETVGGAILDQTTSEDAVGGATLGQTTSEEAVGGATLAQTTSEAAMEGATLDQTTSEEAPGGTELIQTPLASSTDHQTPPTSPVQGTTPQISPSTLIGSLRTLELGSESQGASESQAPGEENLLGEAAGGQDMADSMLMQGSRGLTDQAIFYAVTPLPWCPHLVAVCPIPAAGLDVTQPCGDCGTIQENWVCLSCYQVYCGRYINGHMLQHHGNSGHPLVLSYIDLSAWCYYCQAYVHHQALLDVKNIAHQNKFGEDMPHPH
As to the kind of experiment: Inhibition of HDAC6 (unknown origin).

The target of data set [3] is Vascular endothelial growth factor receptor 1 (Homo sapiens, UniProt P17948). As to the kind of experiment: Inhibition of VEGFR1 (unknown origin).
The target in data set [4] is Vascular endothelial growth factor receptor 3 (Homo sapiens, UniProt P35916). As to the kind of experiment: Inhibition of VEGFR3 (unknown origin).
Data set [5] relates to HepG2. As to the kind of experiment: Anticancer activity against human HepG2 cells assessed as reduction in cell growth incubated for 24 hrs by MTT assay. The class given is functional, cell-based. The conditions noted are these: HepG2, 24 h. A general note: Formazan colour is commonly taken as a measure of viable cells.
The nature of data set [6]: Acute toxicity in ip dosed Swiss albino mouse assessed as lethal dose. The class given is organism-based. The settings on record: in vivo, read-out: ALD50.
In data set [7] the target is T1, Vascular endothelial growth factor receptor 2. As to the kind of experiment: Inhibition of human VEGFR-2 by ELISA method. Background: An ELISA detects its analyte on a solid surface through an enzyme-linked reagent.
Data set [8] has as its system HCT-116. As to the kind of experiment: Antiproliferative activity against human HCT-116 cells assessed as reduction in cell growth incubated for 24 hrs by MTT assay. The data set is classed as functional, cell-based. The conditions noted are these: HCT-116, 24 h.
For data set [9], the system named is HepG2. As to the kind of experiment: Antiproliferative activity against human HepG2 cells assessed as inhibition of cell growth incubated for 24 hrs by MTT assay. The class given is functional, cell-based. The conditions noted are these: HepG2, 24 h.
In data set [10] the test system is MCF7. As to the kind of experiment: Antiproliferative activity against human MCF7 cells assessed as inhibition of cell growth incubated for 24 hrs by MTT assay. The data set is classed as functional, cell-based. The conditions noted are these: MCF7, 24 h.
Data set [11] has as its system HCT-116. As to the kind of experiment: Antiproliferative activity against human HCT-116 cells assessed as inhibition of cell growth incubated for 24 hrs by MTT assay. The data set is classed as functional, cell-based. The settings on record: HCT-116, 24 h.
Data set [12] deals with T1, Vascular endothelial growth factor receptor 2. As to the kind of experiment: Inhibition of VEGFR2 (unknown origin) by FRET based assay.
Data set [13] concerns the target Serine/threonine-protein kinase B-raf (Homo sapiens, UniProt P15056). As to the kind of experiment: Inhibition of wild type BRAF (unknown origin).
Data set [14] concerns the target Serine/threonine-protein kinase B-raf (Homo sapiens, UniProt P15056, V600E). As to the kind of experiment: Inhibition of BRAF V600E mutant (unknown origin).
For data set [15], the target named is Epidermal growth factor receptor (Homo sapiens, UniProt P00533). As to the kind of experiment: Inhibition of EGFR (unknown origin) by DiscoverX KINOMEscan assay.
Data set [16] deals with MCF7. As to the kind of experiment: Antiproliferative activity against human MCF7 cells assessed as cell growth inhibition measured for 24 hrs by MTT assay. The class given is functional, cell-based. The settings on record: MCF7, 24 h.
Data set [17] relates to HepG2. As to the kind of experiment: Antiproliferative activity against human HepG2 cells assessed as cell growth inhibition measured for 24 hrs by MTT assay. The data set is classed as functional, cell-based. The settings on record: HepG2, 24 h.
Data set [18] concerns A549. As to the kind of experiment: Antiproliferative activity against human A549 cells assessed as cell growth inhibition measured for 24 hrs by MTT assay. The class given is functional, cell-based. The settings on record: A549, 24 h.
Data set [19] relates to HepG2. As to the kind of experiment: Antiproliferative activity against human HepG2 cells assessed as reduction in cell growth incubated for 24 hrs by MTT assay. The class given is functional, cell-based. The settings on record: HepG2, 24 h.
The subject of data set [20] is MCF7. As to the kind of experiment: Antiproliferative activity against human MCF7 cells assessed as reduction in cell growth incubated for 24 hrs by MTT assay. The conditions noted are these: MCF7, 24 h. The data set is classed as functional, cell-based.
Data set [21] has as its system MCF7. As to the kind of experiment: Antiproliferative actiivty against human MCF7 cells assessed as reduction in cell viability by MTT assay. The class given is functional, cell-based.
Data set [22] concerns HCT-116. As to the kind of experiment: Antiproliferative actiivty against human HCT-116 cells assessed as reduction in cell viability by MTT assay. The data set is classed as functional, cell-based.
Data set [23] can be described thus: Antiproliferative actiivty against human WI-38 cells assessed as reduction in cell viability by MTT assay. The class given is toxicity, cell-based.
For data set [24], the target named is T1, Vascular endothelial growth factor receptor 2. As to the kind of experiment: Inhibition of human VEGFR2.
In data set [25] the test system is A549. As to the kind of experiment: Antiproliferative activity against human A549 cells assessed as reduction in cell viability. The class given is functional, cell-based.
The next data set relates to NCI-H441. As to the kind of experiment: Antiproliferative activity against human NCI-H441 cells assessed as reduction in cell viability. The class given is functional, cell-based.
Another data set deals with NCI-H1650. As to the kind of experiment: Antiproliferative activity against human NCI-H1650 cells assessed as reduction in cell viability. The class given is functional, cell-based.
The test system of a further data set is NCI-H1975. As to the kind of experiment: Antiproliferative activity against human NCI-H1975 cells assessed as reduction in cell viability. The data set is classed as functional, cell-based.
Data set [26] has as its target T1, Vascular endothelial growth factor receptor 2. As to the kind of experiment: Inhibition of human recombinant VEGFR2.
Data set [27] has as its system HepG2. As to the kind of experiment: Cytotoxicity against human HepG2 cells assessed as inhibition of cell growth incubated for 48 hrs by MTT assay. The class given is functional, cell-based. The conditions noted are these: HepG2, 48 h.
Data set [28] has as its system HCT-116. As to the kind of experiment: Cytotoxicity against human HCT-116 cells assessed as inhibition of cell growth incubated for 48 hrs by MTT assay. The data set is classed as functional, cell-based. The conditions noted are these: HCT-116, 48 h.
Data set [29] concerns MCF7. As to the kind of experiment: Cytotoxicity against human MCF7 cells assessed as inhibition of cell growth incubated for 48 hrs by MTT assay. The conditions noted are these: MCF7, 48 h. The class given is functional, cell-based.
In another data set the test system is PC-3. As to the kind of experiment: Cytotoxicity against human PC-3 cells assessed as inhibition of cell growth incubated for 48 hrs by MTT assay. The class given is functional, cell-based. The settings on record: PC-3, 48 h.

T1 sequence (P35968 whole entry): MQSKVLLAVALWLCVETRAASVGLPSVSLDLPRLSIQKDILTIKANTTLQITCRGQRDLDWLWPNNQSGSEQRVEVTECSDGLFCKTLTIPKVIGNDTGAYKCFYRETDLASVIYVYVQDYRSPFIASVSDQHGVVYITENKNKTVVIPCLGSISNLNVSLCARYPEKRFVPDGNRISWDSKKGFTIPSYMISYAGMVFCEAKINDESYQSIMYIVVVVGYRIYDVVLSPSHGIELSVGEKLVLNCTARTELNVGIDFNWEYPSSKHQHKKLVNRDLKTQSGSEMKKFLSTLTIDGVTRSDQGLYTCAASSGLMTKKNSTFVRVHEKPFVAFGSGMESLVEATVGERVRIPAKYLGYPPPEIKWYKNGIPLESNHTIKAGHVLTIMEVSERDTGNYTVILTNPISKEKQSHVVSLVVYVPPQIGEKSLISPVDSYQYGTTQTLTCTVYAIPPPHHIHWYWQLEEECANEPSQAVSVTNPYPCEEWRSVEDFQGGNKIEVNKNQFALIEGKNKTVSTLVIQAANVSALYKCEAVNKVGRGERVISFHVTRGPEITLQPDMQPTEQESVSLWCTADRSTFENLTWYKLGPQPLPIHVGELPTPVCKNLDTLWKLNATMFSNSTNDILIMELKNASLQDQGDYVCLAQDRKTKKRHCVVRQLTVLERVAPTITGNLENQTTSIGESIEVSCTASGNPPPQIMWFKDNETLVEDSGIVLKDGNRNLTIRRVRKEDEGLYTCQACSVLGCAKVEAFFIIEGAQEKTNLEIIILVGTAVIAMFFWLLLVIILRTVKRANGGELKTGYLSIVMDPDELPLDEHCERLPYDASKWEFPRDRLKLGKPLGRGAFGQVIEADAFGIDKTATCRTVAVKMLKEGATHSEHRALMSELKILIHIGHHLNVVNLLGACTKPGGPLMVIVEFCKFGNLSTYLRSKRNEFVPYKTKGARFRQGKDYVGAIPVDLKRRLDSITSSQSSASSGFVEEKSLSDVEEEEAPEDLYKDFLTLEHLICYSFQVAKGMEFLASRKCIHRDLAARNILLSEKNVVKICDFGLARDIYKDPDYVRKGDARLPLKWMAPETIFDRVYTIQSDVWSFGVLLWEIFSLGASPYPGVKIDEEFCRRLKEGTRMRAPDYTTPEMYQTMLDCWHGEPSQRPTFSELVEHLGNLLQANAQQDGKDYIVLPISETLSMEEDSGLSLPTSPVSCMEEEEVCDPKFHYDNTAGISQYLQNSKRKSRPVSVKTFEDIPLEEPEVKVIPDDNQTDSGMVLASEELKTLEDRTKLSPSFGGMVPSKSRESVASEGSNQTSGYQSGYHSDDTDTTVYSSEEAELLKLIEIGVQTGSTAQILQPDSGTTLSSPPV
Sequence of Vascular endothelial growth factor receptor 3 (P35916 whole entry): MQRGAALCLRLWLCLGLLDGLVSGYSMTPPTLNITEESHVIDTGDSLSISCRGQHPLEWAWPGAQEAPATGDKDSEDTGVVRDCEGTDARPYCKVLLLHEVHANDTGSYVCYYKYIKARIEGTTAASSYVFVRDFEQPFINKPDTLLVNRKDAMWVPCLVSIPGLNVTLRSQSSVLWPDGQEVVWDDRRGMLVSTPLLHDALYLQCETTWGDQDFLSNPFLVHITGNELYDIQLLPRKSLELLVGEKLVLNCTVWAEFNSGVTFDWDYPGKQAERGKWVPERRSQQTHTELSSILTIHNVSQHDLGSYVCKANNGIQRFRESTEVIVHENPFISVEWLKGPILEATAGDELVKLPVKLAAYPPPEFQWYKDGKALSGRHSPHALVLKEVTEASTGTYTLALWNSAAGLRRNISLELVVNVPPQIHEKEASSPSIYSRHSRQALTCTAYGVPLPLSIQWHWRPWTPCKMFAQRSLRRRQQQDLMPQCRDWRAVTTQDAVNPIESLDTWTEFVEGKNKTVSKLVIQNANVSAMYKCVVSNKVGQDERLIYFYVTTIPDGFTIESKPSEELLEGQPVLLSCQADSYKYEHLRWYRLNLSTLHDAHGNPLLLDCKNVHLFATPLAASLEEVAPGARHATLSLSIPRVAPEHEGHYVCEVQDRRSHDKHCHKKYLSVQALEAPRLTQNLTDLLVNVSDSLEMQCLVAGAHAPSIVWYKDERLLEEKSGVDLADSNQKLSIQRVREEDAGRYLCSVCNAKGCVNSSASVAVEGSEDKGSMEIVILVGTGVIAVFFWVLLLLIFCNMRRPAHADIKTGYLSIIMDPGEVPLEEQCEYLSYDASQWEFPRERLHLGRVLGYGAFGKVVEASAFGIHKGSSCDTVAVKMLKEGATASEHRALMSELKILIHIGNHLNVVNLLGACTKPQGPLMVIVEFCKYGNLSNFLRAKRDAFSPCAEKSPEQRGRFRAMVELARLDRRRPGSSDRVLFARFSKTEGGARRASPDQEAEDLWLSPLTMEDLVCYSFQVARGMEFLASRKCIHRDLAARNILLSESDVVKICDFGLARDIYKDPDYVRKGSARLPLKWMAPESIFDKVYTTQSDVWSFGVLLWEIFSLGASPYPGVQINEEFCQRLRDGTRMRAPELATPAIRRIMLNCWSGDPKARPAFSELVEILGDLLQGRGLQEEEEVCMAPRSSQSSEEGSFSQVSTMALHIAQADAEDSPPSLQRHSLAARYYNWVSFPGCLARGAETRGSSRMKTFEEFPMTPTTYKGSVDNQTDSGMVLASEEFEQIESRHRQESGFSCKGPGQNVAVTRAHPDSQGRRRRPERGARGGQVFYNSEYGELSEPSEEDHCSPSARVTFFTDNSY
Sequence of Histone deacetylase 1 (Q13547 whole entry): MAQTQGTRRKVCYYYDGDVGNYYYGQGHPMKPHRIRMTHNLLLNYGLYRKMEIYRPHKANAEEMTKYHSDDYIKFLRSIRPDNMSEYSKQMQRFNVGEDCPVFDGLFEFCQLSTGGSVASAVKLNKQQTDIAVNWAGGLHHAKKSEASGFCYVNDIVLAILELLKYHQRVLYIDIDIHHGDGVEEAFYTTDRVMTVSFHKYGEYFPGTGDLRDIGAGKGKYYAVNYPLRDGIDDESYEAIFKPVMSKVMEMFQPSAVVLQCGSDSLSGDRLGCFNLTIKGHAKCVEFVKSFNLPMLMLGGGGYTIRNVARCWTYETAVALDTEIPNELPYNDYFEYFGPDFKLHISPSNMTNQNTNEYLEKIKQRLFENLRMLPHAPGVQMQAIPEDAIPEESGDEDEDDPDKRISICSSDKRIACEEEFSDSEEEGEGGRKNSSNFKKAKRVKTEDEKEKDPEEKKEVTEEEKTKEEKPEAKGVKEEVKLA
Sequence of Vascular endothelial growth factor receptor 1 (P17948 whole entry): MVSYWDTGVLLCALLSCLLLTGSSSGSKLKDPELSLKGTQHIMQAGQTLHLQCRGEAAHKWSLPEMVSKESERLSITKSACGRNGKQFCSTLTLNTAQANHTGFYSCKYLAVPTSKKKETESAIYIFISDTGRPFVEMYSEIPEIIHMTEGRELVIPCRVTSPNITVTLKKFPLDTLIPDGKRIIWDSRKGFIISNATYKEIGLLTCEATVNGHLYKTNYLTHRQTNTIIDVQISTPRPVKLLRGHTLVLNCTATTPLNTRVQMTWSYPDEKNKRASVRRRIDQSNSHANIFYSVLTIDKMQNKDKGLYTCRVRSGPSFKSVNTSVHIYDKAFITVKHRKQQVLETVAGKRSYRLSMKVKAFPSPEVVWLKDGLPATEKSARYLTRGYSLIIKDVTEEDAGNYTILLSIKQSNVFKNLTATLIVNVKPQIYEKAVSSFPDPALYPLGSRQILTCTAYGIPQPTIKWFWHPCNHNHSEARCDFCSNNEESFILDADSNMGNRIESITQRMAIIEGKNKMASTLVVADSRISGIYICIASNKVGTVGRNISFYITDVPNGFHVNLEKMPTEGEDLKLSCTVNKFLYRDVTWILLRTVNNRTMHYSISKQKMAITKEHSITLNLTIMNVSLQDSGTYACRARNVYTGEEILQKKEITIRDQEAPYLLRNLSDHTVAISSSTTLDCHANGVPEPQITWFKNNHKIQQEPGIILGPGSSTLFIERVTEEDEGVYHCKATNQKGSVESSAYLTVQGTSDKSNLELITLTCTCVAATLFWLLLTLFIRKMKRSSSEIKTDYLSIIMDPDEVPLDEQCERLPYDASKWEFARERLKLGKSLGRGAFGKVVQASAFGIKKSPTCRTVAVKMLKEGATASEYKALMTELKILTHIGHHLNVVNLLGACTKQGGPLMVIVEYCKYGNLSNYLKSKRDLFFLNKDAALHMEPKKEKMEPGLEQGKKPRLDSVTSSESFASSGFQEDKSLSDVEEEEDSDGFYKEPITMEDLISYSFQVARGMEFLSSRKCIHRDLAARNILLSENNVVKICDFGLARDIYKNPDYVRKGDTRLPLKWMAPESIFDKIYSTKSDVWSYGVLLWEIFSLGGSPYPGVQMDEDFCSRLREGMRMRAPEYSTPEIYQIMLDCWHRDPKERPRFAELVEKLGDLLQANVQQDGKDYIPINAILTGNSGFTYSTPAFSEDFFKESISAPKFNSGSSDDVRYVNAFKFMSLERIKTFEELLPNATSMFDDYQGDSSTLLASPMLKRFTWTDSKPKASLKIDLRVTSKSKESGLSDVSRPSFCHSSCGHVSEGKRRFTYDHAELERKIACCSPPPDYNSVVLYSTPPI

Take `Cc1c2ccc(Nc3ccnc(Nc4ccc(OCCCCCCC(=O)NO)cc4)n3)cc2nn1C`: the half-inhibitory concentration (IC50) in data set [1] is 32 nM; on Histone deacetylase 1, 240 nM; at Histone deacetylase 4, above 9.17 µM; in [2], 63 nM; in data set [3], 41 nM; in [4] it was 66 nM.

With `CCOc1ccc(Nc2nnc3c4c(cccc24)NC(=S)N3Cc2ccccc2)cc1`, the IC50 in the data set on HepG2 [5] is 220 nM. Further, the LD50 in data set [6] is above 800 mg/kg.

Take `C/C(=N\NC(=O)c1ccccc1O)c1ccc(NC(=O)CSc2nc3ccccc3c(=O)n2-c2ccccc2)cc1`: the IC50 in [7] worked out at 340 nM; in the data set on HCT-116 [8] it was 3.74 µM; in the data set on HepG2 [9], 3.74 µM; with MCF7 [10], 5 µM; with HCT-116 [11], 6.77 µM.

In the case of `O=C(CN1CCN(c2cc(=O)[nH]c3c(-c4ccccc4)cccc23)CC1)Nc1ccc(F)cc1`, the IC50 in data set [12] is 38.8 nM.

In the case of `O=C(CSc1nc2sc3c(c2c(=O)n1-c1ccc(Cl)cc1)CCCC3)NNC(=O)Nc1cccc(C(F)(F)F)c1`, the IC50 in data set [1] is 111 nM; in data set [13], 71 nM; in [14] it was 89 nM.

For the compound `C/C(=N\N1C(=O)CNC1=S)c1ccc(O)cc1O`, the 50% inhibitory concentration (IC50) in [15] was determined as 23.2 µM; in the data set with MCF7 [16], 2260 nM; in the data set with HepG2 [17] it was 5.18 µM; in the data set with A549 [18], 3.14 µM.

Take `CCn1c(SCC(=O)Nc2ccc(/C(C)=N/O)cc2)nc2ccccc2c1=O`: the concentration for half-maximal inhibition (IC50) amounted to 2500 nM in data set [7], 3.97 µM in the data set with HepG2 [19], 4.83 µM in the data set with MCF7 [20] and 4.58 µM in the data set on HCT-116 [8].

On to `O=C(c1ccccc1)n1cc(-c2nc3cc(Cl)ccc3[nH]c2=O)c(=O)[nH]1`, for which the half-inhibitory concentration (IC50) turned out to be 3.57 µM in the data set on MCF7 [21], 4.28 µM with HCT-116 [22], 99.2 µM in [23] and 144 nM in [24].

Take `Cc1c2ccc(Nc3ccnc(Nc4ccc(NC(=O)CCCCCCC(=O)NO)cc4)n3)cc2nn1C`: the IC50 in data set [1] was 16 nM; against Histone deacetylase 1 it was 120 nM; against Histone deacetylase 4, above 10 µM; in [2], 94 nM; in data set [3] it was 18 nM; in data set [4], 54 nM.

`CCOC(=O)c1sc(N2N=C(c3ccc(Cl)cc3Cl)CC2c2ccc(OC)cc2)nc1C` (stereo not given): the concentration for half-maximal inhibition (IC50) is 4.22 µM in the data set on A549 [25], 4.76 µM with NCI-H441, 5.68 µM in the data set with NCI-H1650 and 6.16 µM in the data set on NCI-H1975.

In the case of `Cc1[nH]c2ncnc(Nc3ccc(NC(=O)Nc4cccc(C(F)(F)F)c4)c(F)c3)c2c1C`, the IC50 in data set [26] was 52.4 nM.

For `N=c1cc(N)nc2sc(NC(=O)c3cccs3)nn12`, the half-maximal inhibitory concentration (IC50) in [1] turned out to be 8200 nM; with HepG2 [27], 4.22 µM; in the data set on HCT-116 [28], 33.1 µM; in the data set with MCF7 [29] it was 8.45 µM; in the data set with PC-3, 7.76 µM.

A word on the IC50: it is the concentration that inhibits the measured activity by half.

The values above are taken from ChEMBL document CHEMBL5500383, “Recent advances and future directions on small molecule VEGFR inhibitors in oncological conditions” (Eur J Med Chem, 2024).
